Test system: Loss in righting reflex induced by xylazine
Assay: Loss of righting reflex test (xylazine antagonism)
Format: in vivo, Female Wistar strain rats
Details: female Wistar rats 220-270 g; test compound 60 min before observation; xylazine 20 mg/kg i.p. 30 min later; route of test compound not given
Experimental: Loss of righting reflex test Female Wistar strain rats weighing 220-270 g were used throughout the test. Sixty minutes before observations were made, the rats were treated with a test compound or with a saline solution. Thirty minutes later, all animals received an intraperitoneal injection of 20 mg/kg body weight of xylazine. […] The degree of which the righting reflex was compromised, was scored 0-3 depending on the animal's response to it being put gently on its back on a flat surface. Score 3: complete loss of righting reflexes; score 2: some righting movements occur, but these fail to result in a 180° turn of the body; score 1: righting movements do result in a 180° turn of the body, but the process takes noticeably more time than it does in normal animals; score 0: righting is effected with a speed similar to that of normal rats.

Row | Compound | Loss in righting reflex induced by xylazine ED50-values (dose producing loss of righting reflex scores <3 in 50% of the tested animals)
1 | c1ccc2c(c1)OCC(CN1CCC(CNc3nc4cccnc4s3)CC1)O2 (stereo not drawn) [Compound 8, N-[[1-[(2,3-dihydro-1,4-benzodioxin-2-yl)methyl]-4-piperidinyl]methyl]thiazolo[5,4-b]pyridin-2-amine] | 0.08 mg/kg
2 | c1ccc2c(c1)OC[C@H](CN1CCC(CNc3nc4cccnc4s3)CC1)O2 [Compound 13, (-)-(S)-N-[[1[(2,3-dihydro-1,4-benzodioxin-2-yl)methyl]-4-piperidinyl]methyl]thiazolo[5,4-b]pyridin-2-amine] | 0.08 mg/kg
3 | Fc1ccc2nc(NCC3CCN(CC4COc5ccccc5O4)CC3)sc2c1 (stereo not drawn) [Compound 19, N-[[1-[(2,3-dihydro-1,4-benzodioxin-2-yl)methyl]-4-piperidinyl]methyl]-6-fluoro-2-benzothiazolamine] | 0.31 mg/kg
4 | Fc1cccc2sc(NCC3CCN(CC4COc5ccccc5O4)CC3)nc12 (stereo not drawn) [Compound 20, N-[[1-[(2,3-dihydro-1,4-benzodioxin-2-yl)methyl]-4-piperidinyl]methyl]-4-fluoro-2-benzothiazolamine] | 0.066 mg/kg
5 | Cc1ccc2nc(NCC3CCN(CC4COc5ccccc5O4)CC3)sc2c1 (stereo not drawn) [Compound 21, N-[[1-[(2,3-dihydro-1,4-benzodioxin-2-yl)methyl]-4-piperidinyl]methyl]-6-methyl-2-benzothiazolamine] | 0.14 mg/kg
6 | COc1cc2nc(NCC3CCN(CC4COc5ccccc5O4)CC3)sc2c(OC)c1OC (stereo not drawn) [Compound 26, N-[[1-[(2,3-dihydro-1,4-benzodioxin-2-yl)methyl]-4-piperidinyl]methyl]-5,6,7-trimethoxy-2-benzothiazolamine (E)-2-butenedioate(2:3)] | 0.08 mg/kg
7 | COc1cc2nc(NCC3CCN(CC4COc5ccccc5O4)CC3)sc2cc1OC (stereo not drawn) [Compound 27, N-[[1-[(2,3-dihydro-1,4-benzodioxin-2-yl)methyl]-4-piperidinyl]methyl]-5,6-dimethoxy-2-benzothiazolamine] | 0.16 mg/kg
8 | c1ccc2c(c1)OCC(CN1CCC(CNc3nc4cc5c(cc4s3)OCO5)CC1)O2 (stereo not drawn) [Compound 28, N-[[1-[(2,3-dihydro-1,4-benzodioxin-2-yl)methyl]-4-piperidinyl]methyl]-1,3-dioxolo[4,5-f]benzothiazol-6-amine] | 0.31 mg/kg
9 | c1ccc2c(c1)OCC(CN1CCC(CCNc3nc4ccccc4s3)CC1)O2 (stereo not drawn) [Compound 30, N-[2-[1[(2,3-dihydro-1,4-benzodioxin-2-yl)methyl]-4-piperidinyl]ethyl]-2-benzothiazolamine] | 0.31 mg/kg
10 | COc1cc(OC)c2sc(NCC3CCN(C[C@H]4COc5ccccc5O4)CC3)nc2c1 [Compound 34] | 0.31 mg/kg
11 | COc1cc2nc(NCC3CCN(CC4CCc5ccccc5O4)CC3)sc2cc1OC (stereo not drawn) [Compound 35] | 0.31 mg/kg
12 | Cl.Cl.c1ccc2c(c1)OCC(CN1CCC(CNc3nc4ccccc4o3)CC1)O2 (stereo not drawn) [Compound 42, N-[[1-[(2,3-dihydro-1,4-benzodioxin-2-yl)methyl]-4-piperidinyl]methyl]-2-benzoxazolamine dihydrochloride] | 0.31 mg/kg
13 | Cl.Cl.Oc1ccc2nc(NCC3CCN(CC4COc5ccccc5O4)CC3)sc2c1 (stereo not drawn) [Compound 57, 2-[[[1-[(2,3-dihydro-1,4-benzodioxin-2-yl)methyl]-4-piperidinyl]methyl]amino]-6-benzothiazolol dihydrochloride] | 0.31 mg/kg
14 | c1ccc2c(c1)OCC(CN1CCC(CNc3nc4cnccc4s3)CC1)O2 (stereo not drawn) [Compound 58, N-[[1-[(2,3-dihydro-1,4-benzodioxin-2-yl)methyl]-4-piperidinyl]methyl]thiazolo[4,5-c]pyridin-2-amine] | 0.080 mg/kg
15 | COc1ccc2nc(NCC3CCN(CC4COc5ccccc5O4)CC3)sc2c1 (stereo not drawn) [Compound 68, N-[[1-[(2,3-dihydro-1,4-benzodioxin-2-yl)methyl]-4-piperidinyl]methyl]-6-methoxy-2-benzothiazolamine] | 0.16 mg/kg
